Where two headings read alike, the source gives them in different places.
Assays:
KP1005 (CTX-M-14) = experiment: Potentiation of aztreonam, strain KP1005; assay type: cell-based
KP1009 (CTX-M-15) [1] = experiment: Potentiation of aztreonam, strain KP1009; assay type: cell-based
ec308 (SHV-5) [2] = experiment: Potentiation of aztreonam, strain ec308; assay type: cell-based; conditions: for AZT MPC4 SHV-5 ec308: minimum BLI concentration inhibiting growth with 4 μg/mL aztreonam
ec302 (TEM-10) [3] = experiment: Potentiation of aztreonam, strain ec302; assay type: cell-based
KP1004 (K-2) = experiment: Potentiation of aztreonam, strain KP1004; assay type: cell-based; conditions: for AZT MPC4 K-2 KP1004: minimum BLI concentration inhibiting growth with 4 μg/mL aztreonam
EC1010 (CMY-6) [4] = experiment: Potentiation of aztreonam, strain EC1010; assay type: cell-based
ECL1002 = experiment: Potentiation of aztreonam, strain ECL1002; assay type: cell-based; conditions: minimum BLI concentration inhibiting growth with 4 μg/mL aztreonam
ec308 (SHV-5) [5] = experiment: Potentiation of tigemonam, strain ec308; assay type: cell-based; conditions: minimum BLI concentration inhibiting growth with 4 μg/mL tigemonam
EC1010 (CMY-6) [6] = assay type: cell-based
SHV-12 = SHV-12 (Klebsiella pneumoniae, UniProt P0AD64, E235K/G234S/L31Q); experiment: Inhibition of nitrocefin cleavage by purified SHV-12; assay type: biochemical; conditions: nitrocefin reporter substrate, purified enzyme; read-out: Ki (SHV-12, NCF)
Description: (§1) Purified enzymes were mixed with various concentrations of inhibitors in reaction buffer and incubated for 10 min at room temperature. Nitrocefin was added and substrate cleavage profiles were recorded at 490 nm every 10 sec for 10 min.

KPC-2 = KPC-2 (Klebsiella pneumoniae, UniProt Q9F663); experiment: Inhibition of nitrocefin cleavage by purified KPC-2; assay type: biochemical; conditions: nitrocefin reporter substrate, purified enzyme; read-out: Ki (KPC-2, NCF)
Description: as §1

KP1009 (CTX-M-15) [7] = experiment: Potentiation of tigemonam, strain KP1009; conditions: minimum BLI concentration inhibiting growth with 4 μg/mL tigemonam
ec302 (TEM-10) [8] = experiment: Potentiation of tigemonam, strain ec302; assay type: cell-based
PAM1032/KPC-2 = experiment: Biapenem potentiation in PAM1032/KPC-2 (MexAB-OprM overexpressed); assay type: cell-based, Pseudomonas aeruginosa; conditions: BLI potency to decrease biapenem MIC 64-fold, 32 to 0.5 μg/ml; efflux proficient strain
Description: (§2) Efflux of BLIs from Pseudomonas aeruginosa by the MexAB-OprM efflux pump was also evaluated. […] Due to expression of KPC-2 both strains became resistant to biapenem. […] Potency of BLIs to potentiate biapenem in these strains was determined. […] The ratio of MPC64 values for each BLI in PAM1032/KPC-2 (efflux proficient) and PAM1154/KPC-2 (efflux deficient) was determined to generate the Efflux Index (EI).

PAM1154/KPC-2 = experiment: Biapenem potentiation in PAM1154/KPC-2 (MexAB-OprM lacking); assay type: cell-based, Pseudomonas aeruginosa
Description: as §2

[9] = minimum BLI concentration inhibiting growth with 4 μg/mL aztreonam

Sequence of SHV-12 (P0AD64 22-286 L31Q/G234S/E235K): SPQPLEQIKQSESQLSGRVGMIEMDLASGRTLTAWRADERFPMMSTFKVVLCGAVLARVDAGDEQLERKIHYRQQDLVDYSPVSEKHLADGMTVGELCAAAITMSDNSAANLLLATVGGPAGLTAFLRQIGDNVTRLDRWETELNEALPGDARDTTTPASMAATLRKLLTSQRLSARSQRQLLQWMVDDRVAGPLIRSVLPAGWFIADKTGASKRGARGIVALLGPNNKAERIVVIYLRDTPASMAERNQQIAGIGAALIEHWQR
Sequence of KPC-2 (Q9F663 25-293, looked up, species assumed): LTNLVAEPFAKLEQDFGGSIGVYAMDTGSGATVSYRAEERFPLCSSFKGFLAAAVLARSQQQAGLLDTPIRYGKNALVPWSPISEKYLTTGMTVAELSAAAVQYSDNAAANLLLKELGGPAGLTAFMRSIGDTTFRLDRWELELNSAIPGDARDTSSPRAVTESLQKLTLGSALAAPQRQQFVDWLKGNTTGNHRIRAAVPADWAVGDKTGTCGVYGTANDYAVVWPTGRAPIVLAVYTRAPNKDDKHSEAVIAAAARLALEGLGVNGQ

| SMILES | AZT MPC4 CTX-M-14 KP1005 (KP1005 (CTX-M-14)) | AZT MPC4 CTX-M-15 KP1009 (KP1009 (CTX-M-15) [1]) | AZT MPC4 SHV-5 ec308 (ec308 (SHV-5) [2]) | AZT MPC4 TEM-10 ec302 (ec302 (TEM-10) [3]) | AZT MPC4 K-2 KP1004 (KP1004 (K-2)) | AZT MPC4 ECL1002 (ECL1002) | TIG MPC4 SHV-5 ec308 (ec308 (SHV-5) [5]) | TIG MPC4 CMY-6 EC1010 (EC1010 (CMY-6) [6]) | Ki (SHV-12) | Ki (KPC-2) | TIG MPC4 CTX-M-15 KP1009 (KP1009 (CTX-M-15) [7]) | TIG MPC4 TEM-10 ec302 (ec302 (TEM-10) [8]) | PAM1032/KPC-2 Biapenem MPC64 (PAM1032/KPC-2) | PAM1154/KPC-2 Biapenem MPC64 (PAM1154/KPC-2) | AZT MPC4 CMY-6 EC1010 (EC1010 (CMY-6) [4]) | other results |
| --- | --- | --- | --- | --- | --- | --- | --- | --- | --- | --- | --- | --- | --- | --- | --- | --- |
| C[C@H]1[C@H](NC(=O)/C(=N\OC(C)(C)C(=O)O)c2csc(N)n2)C(=O)N1S(=O)(=O)O [Aztreonam, reference compound] | – | – | – | – | – | – | – | – | – | – | – | – | – | – | – | MIC (KP1005 (CTX-M-14); read-out: Aztreonam MIC): > 128 µg/mL; MIC (KP1009 (CTX-M-15) [1]; read-out: Aztreonam MIC): > 128 µg/mL; MIC (ec308 (SHV-5) [2]; read-out: Aztreonam MIC): > 128 µg/mL; MIC (ec302 (TEM-10) [3]; read-out: Aztreonam MIC): 128 µg/mL; MIC (KP1004 (K-2); read-out: Aztreonam MIC): > 128 µg/mL; MIC (EC1010 (CMY-6) [4]; read-out: Aztreonam MIC): > 128 µg/mL |
| Nc1nnc(C(=O)N[C@H]2Cc3cccc(C(=O)O)c3OB2O)s1 [Compound 19, (R)-3-(5-amino-1,3,4-thiadiazole-2-carboxamido)-2-hydroxy-3,4-dihydro-2H-benzo[e][1,2]oxaborinine-8-carboxylic acid] | Y (key: X = MIC of less than 1 μg/mL; Y = MIC of 1 μg/mL to 10 μg/mL; Z = MIC of greater than 10 μg/mL) | Y (key: X = MIC of less than 1 μg/mL; Y = MIC of 1 μg/mL to 10 μg/mL; Z = MIC of greater than 10 μg/mL) | X (X = MIC of less than 1 μg/mL) | Y (key: X = MIC of less than 1 μg/mL; Y = MIC of 1 μg/mL to 10 μg/mL; Z = MIC of greater than 10 μg/mL) | Y (Y = MIC of 1 μg/mL to 10 μg/mL) | Y (Y = MIC of 1 μg/mL to 10 μg/mL) | X (X = MIC of less than 1 μg/mL) | X (key: X = MIC of less than 1 μg/mL; Y = MIC of 1 μg/mL to 10 μg/mL; Z = MIC of greater than 10 μg/mL) | < 1 nM | > 10 nM | Y (Y = MIC of 1 μg/mL to 10 μg/mL) | – | – | – | – | – |
| O=C(CSC(F)(F)F)N[C@H]1Cc2cccc(C(=O)O)c2OB1O [Compound 1, (R)-2-hydroxy-3-(2-(trifluoromethylthio)acetamido)-3,4-dihydro-2H-benzo[e][1,2]oxaborinine-8-carboxylic acid] | – | – | X (X = MIC of less than 1 μg/mL) | – | Y (Y = MIC of 1 μg/mL to 10 μg/mL) | Y (Y = MIC of 1 μg/mL to 10 μg/mL) | X (X = MIC of less than 1 μg/mL) | – | < 1 nM | – | Y (Y = MIC of 1 μg/mL to 10 μg/mL) | Z (key: X = MIC of less than 1 μg/mL; Y = MIC of 1 μg/mL to 10 μg/mL; Z = MIC of greater than 10 μg/mL) | Z (Z Greater than 40) | X (key: X = Less than 10; Y = 10 to 40; Z Greater than 40) | – | AZT MPC4 CTX-M-14 KP1005 (KP1005 (CTX-M-14); [9]): Y (Y = MIC of 1 μg/mL to 10 μg/mL); AZT MPC4 CTX-M-15 KP1009 (KP1009 (CTX-M-15) [1]; [9]): Y (Y = MIC of 1 μg/mL to 10 μg/mL); AZT MPC4 TEM-10 ec302 (ec302 (TEM-10) [3]; [9]): Y (Y = MIC of 1 μg/mL to 10 μg/mL); AZT MPC4 CMY-6 EC1010 (EC1010 (CMY-6) [4]; [9]): Y (Y = MIC of 1 μg/mL to 10 μg/mL); TIG MPC4 CMY-6 EC1010 (EC1010 (CMY-6) [6]; minimum BLI concentration inhibiting growth with 4 μg/mL tigemonam): X (X = MIC of less than 1 μg/mL) |
| Cn1nnnc1SCC(=O)N[C@H]1Cc2cccc(C(=O)O)c2OB1O [Compound 2, (R)-2-hydroxy-3-(2-(1-methyl-1H-tetrazol-5-ylthio)acetamido)-3,4-dihydro-2H-benzo[e][1,2]oxaborinine-8-carboxylic acid] | X (key: X = MIC of less than 1 μg/mL; Y = MIC of 1 μg/mL to 10 μg/mL; Z = MIC of greater than 10 μg/mL) | Y (key: X = MIC of less than 1 μg/mL; Y = MIC of 1 μg/mL to 10 μg/mL; Z = MIC of greater than 10 μg/mL) | X (X = MIC of less than 1 μg/mL) | Y (key: X = MIC of less than 1 μg/mL; Y = MIC of 1 μg/mL to 10 μg/mL; Z = MIC of greater than 10 μg/mL) | Y (Y = MIC of 1 μg/mL to 10 μg/mL) | Y (Y = MIC of 1 μg/mL to 10 μg/mL) | X (X = MIC of less than 1 μg/mL) | X (key: X = MIC of less than 1 μg/mL; Y = MIC of 1 μg/mL to 10 μg/mL; Z = MIC of greater than 10 μg/mL) | < 1 nM | – | Y (Y = MIC of 1 μg/mL to 10 μg/mL) | Y (key: X = MIC of less than 1 μg/mL; Y = MIC of 1 μg/mL to 10 μg/mL; Z = MIC of greater than 10 μg/mL) | Z (Z Greater than 40) | – | Y (key: X = MIC of less than 1 μg/mL; Y = MIC of 1 μg/mL to 10 μg/mL; Z = MIC of greater than 10 μg/mL) | PAM11154/KPC-2 Biapenem MPC64 (PAM1154/KPC-2; BLI potency to decrease biapenem MIC 64-fold, 32 to 0.5 μg/ml, efflux deficient strain): Y (Y = 10 to 40) |
| O=C(N[C@H]1Cc2cccc(C(=O)O)c2OB1O)c1cncnc1 [Compound 18, (R)-2-hydroxy-3-(pyrimidine-5-carboxamido)-3,4-dihydro-2H-benzo[e][1,2]oxaborinine-8-carboxylic acid] | Y (key: X = MIC of less than 1 μg/mL; Y = MIC of 1 μg/mL to 10 μg/mL; Z = MIC of greater than 10 μg/mL) | Y (key: X = MIC of less than 1 μg/mL; Y = MIC of 1 μg/mL to 10 μg/mL; Z = MIC of greater than 10 μg/mL) | Y (Y = MIC of 1 μg/mL to 10 μg/mL) | X (key: X = MIC of less than 1 μg/mL; Y = MIC of 1 μg/mL to 10 μg/mL; Z = MIC of greater than 10 μg/mL) | Y (Y = MIC of 1 μg/mL to 10 μg/mL) | Y (Y = MIC of 1 μg/mL to 10 μg/mL) | Y (Y = MIC of 1 μg/mL to 10 μg/mL) | X (key: X = MIC of less than 1 μg/mL; Y = MIC of 1 μg/mL to 10 μg/mL; Z = MIC of greater than 10 μg/mL) | < 1 nM | > 10 nM | Y (Y = MIC of 1 μg/mL to 10 μg/mL) | Y (key: X = MIC of less than 1 μg/mL; Y = MIC of 1 μg/mL to 10 μg/mL; Z = MIC of greater than 10 μg/mL) | Z (Z Greater than 40) | X (key: X = Less than 10; Y = 10 to 40; Z Greater than 40) | Y (key: X = MIC of less than 1 μg/mL; Y = MIC of 1 μg/mL to 10 μg/mL; Z = MIC of greater than 10 μg/mL) | – |
| CN(C)C(=O)C(=O)N[C@H]1Cc2cccc(C(=O)O)c2OB1O [Compound 9, (R)-3-(2-(dimethylamino)-2-oxoacetamido)-2-hydroxy-3,4-dihydro-2H-benzo[e][1,2]oxaborinine-8-carboxylic acid] | Y (key: X = MIC of less than 1 μg/mL; Y = MIC of 1 μg/mL to 10 μg/mL; Z = MIC of greater than 10 μg/mL) | Y (key: X = MIC of less than 1 μg/mL; Y = MIC of 1 μg/mL to 10 μg/mL; Z = MIC of greater than 10 μg/mL) | X (X = MIC of less than 1 μg/mL) | Y (key: X = MIC of less than 1 μg/mL; Y = MIC of 1 μg/mL to 10 μg/mL; Z = MIC of greater than 10 μg/mL) | Y (Y = MIC of 1 μg/mL to 10 μg/mL) | Y (Y = MIC of 1 μg/mL to 10 μg/mL) | Y (Y = MIC of 1 μg/mL to 10 μg/mL) | Y (key: X = MIC of less than 1 μg/mL; Y = MIC of 1 μg/mL to 10 μg/mL; Z = MIC of greater than 10 μg/mL) | – | > 10 nM | Y (Y = MIC of 1 μg/mL to 10 μg/mL) | Z (key: X = MIC of less than 1 μg/mL; Y = MIC of 1 μg/mL to 10 μg/mL; Z = MIC of greater than 10 μg/mL) | – | – | Y (key: X = MIC of less than 1 μg/mL; Y = MIC of 1 μg/mL to 10 μg/mL; Z = MIC of greater than 10 μg/mL) | – |
